Series [1] deals with T1, Cholinesterase (Homo sapiens, UniProt P06276). Briefly: Pseudo-irreversible inhibition of human serum BuChE assessed as residual activity at 0.1 times IC50 using acetylcholine iodide as substrate measured 240 mins post dilution by Ellman's method relative to control. A general note: In Ellman's method for cholinesterases, released thiocholine reacts with DTNB.
Series [2] addresses T1, Cholinesterase. The series can be described thus: Inhibition of human serum BuChE assessed as residual activity at IC50 using acetylcholine iodide as substrate measured by Ellman's method relative to control.
Series [3] deals with T1, Cholinesterase. Briefly: Inhibition of human serum BuChE assessed as residual activity at 0.1 times IC50 using acetylcholine iodide as substrate measured after dilution by Ellman's method relative to control.
The nature of series [4]: Effect on spontaneous alteration behavior in mouse assessed as change in total arm entry at 6 mg/kg by Y-maze test. It counts as ADME, organism-based. The following applies: in vivo.
Series [5] deals with Mus musculus. Briefly: Improvement in cognitive impairment in scopolamine-induced mouse model of amnesia assessed as change in spontaneous alteration at 6 mg/kg by Y-maze test (reference value: 40.8%). Format: functional.
The subject of series [6] is Mus musculus. Briefly: Improvement in brain cholinergic activity in scopolamine-induced mouse model of amnesia assessed as change in ChAT vitality at 6 mg/kg (reference value: 28.8 U/g). It counts as functional.
The nature of series [7]: Drug uptake in iv dosed mouse brain measured at 2 mins by PET imaging analysis. Format: ADME, organism-based. The following applies: in vivo.
A short description of series [8]: Drug uptake in iv dosed mouse brain measured after 60 mins by PET imaging analysis. It counts as ADME, organism-based. The following applies: in vivo, 1 h.
Series [9] is described as follows: Drug uptake in iv dosed mouse brain measured up to 60 mins in presence of (E)-4-(3-(3,4-dihydroisoquinolin-2(1H)-yl)-3-oxoprop-1-en-1-yl)-2-methoxyphenyl ethyl(methyl)carbamate by PET imaging analysis. It counts as ADME, organism-based. Conditions: in vivo; call rule not given here.
A short description of series [10]: Drug uptake in iv dosed mouse brain measured up to 60 mins in presence of rivastigmine by PET imaging analysis. Conditions: in vivo, 1 h. Format: ADME, organism-based.
A short description of series [11]: Drug uptake in iv dosed mouse cerebellum measured after 60 mins by PET imaging analysis. Format: ADME, organism-based. Conditions: in vivo, 1 h.
Series [12] in a line: Drug uptake in iv dosed mouse striatum measured after 60 mins by PET imaging analysis. Conditions: in vivo, 1 h. It counts as ADME, organism-based.
A short description of series [13]: Drug uptake in iv dosed mouse hippocampus measured after 60 mins by PET imaging analysis. It counts as ADME, organism-based. Conditions: in vivo, 1 h.
A short description of series [14]: Drug uptake in iv dosed mouse amygdala measured after 60 mins by PET imaging analysis. Format: ADME, organism-based. The following applies: in vivo, 1 h.
Series [15] in a line: Drug uptake in iv dosed mouse thalamus measured after 60 mins by PET imaging analysis. The following applies: in vivo, 1 h. Format: ADME, organism-based.
Series [16] can be described thus: Drug uptake in iv dosed mouse cortex measured after 60 mins by PET imaging analysis. Conditions: in vivo, 1 h. Format: ADME, organism-based.
The nature of series [17]: Drug uptake in iv dosed mouse brainstem measured after 60 mins by PET imaging analysis. It counts as ADME, organism-based. Conditions: in vivo, 1 h.
Series [18] is described as follows: Drug uptake in iv dosed mouse hypothalamus measured after 60 mins by PET imaging analysis. It counts as ADME, organism-based. The following applies: in vivo, 1 h.
The nature of series [19]: Drug uptake in iv dosed mouse central gray substance of midbrain measured after 60 mins by PET imaging analysis. It counts as ADME, organism-based. The following applies: in vivo, 1 h.
Series [20] in a line: Drug uptake in iv dosed mouse cerebellum measured after 60 mins in presence of (E)-4-(3-(3,4-dihydroisoquinolin-2(1H)-yl)-3-oxoprop-1-en-1-yl)-2-methoxyphenyl ethyl(methyl)carbamate by PET imaging analysis. It counts as ADME, organism-based. The following applies: in vivo.
Series [21] can be described thus: Drug uptake in iv dosed mouse striatum measured after 60 mins in presence of (E)-4-(3-(3,4-dihydroisoquinolin-2(1H)-yl)-3-oxoprop-1-en-1-yl)-2-methoxyphenyl ethyl(methyl)carbamate by PET imaging analysis. The following applies: in vivo. Format: ADME, organism-based.
Series [22] is described as follows: Drug uptake in iv dosed mouse hippocampus measured after 60 mins in presence of (E)-4-(3-(3,4-dihydroisoquinolin-2(1H)-yl)-3-oxoprop-1-en-1-yl)-2-methoxyphenyl ethyl(methyl)carbamate by PET imaging analysis. The following applies: in vivo. It counts as ADME, organism-based.
Series [23] is described as follows: Drug uptake in iv dosed mouse amygdala measured after 60 mins in presence of (E)-4-(3-(3,4-dihydroisoquinolin-2(1H)-yl)-3-oxoprop-1-en-1-yl)-2-methoxyphenyl ethyl(methyl)carbamate by PET imaging analysis. The following applies: in vivo. It counts as ADME, organism-based.
Series [24] in a line: Drug uptake in iv dosed mouse thalamus measured after 60 mins in presence of (E)-4-(3-(3,4-dihydroisoquinolin-2(1H)-yl)-3-oxoprop-1-en-1-yl)-2-methoxyphenyl ethyl(methyl)carbamate by PET imaging analysis. It counts as ADME, organism-based. Conditions: in vivo.
A short description of series [25]: Drug uptake in iv dosed mouse cortex measured after 60 mins in presence of (E)-4-(3-(3,4-dihydroisoquinolin-2(1H)-yl)-3-oxoprop-1-en-1-yl)-2-methoxyphenyl ethyl(methyl)carbamate by PET imaging analysis. Conditions: in vivo. Format: ADME, organism-based.
Series [26] is described as follows: Drug uptake in iv dosed mouse brainstem measured after 60 mins in presence of (E)-4-(3-(3,4-dihydroisoquinolin-2(1H)-yl)-3-oxoprop-1-en-1-yl)-2-methoxyphenyl ethyl(methyl)carbamate by PET imaging analysis. Format: ADME, organism-based. Conditions: in vivo.
Series [27] in a line: Drug uptake in iv dosed mouse hypothalamus measured after 60 mins in presence of (E)-4-(3-(3,4-dihydroisoquinolin-2(1H)-yl)-3-oxoprop-1-en-1-yl)-2-methoxyphenyl ethyl(methyl)carbamate by PET imaging analysis. Format: ADME, organism-based. The following applies: in vivo.
Series [28] is described as follows: Drug uptake in iv dosed mouse central gray substance of midbrain measured after 60 mins in presence of (E)-4-(3-(3,4-dihydroisoquinolin-2(1H)-yl)-3-oxoprop-1-en-1-yl)-2-methoxyphenyl ethyl(methyl)carbamate by PET imaging analysis. Format: ADME, organism-based. Conditions: in vivo.
A short description of series [29]: Drug uptake in iv dosed mouse cerebellum measured after 60 mins in presence of rivastigmine by PET imaging analysis. Format: ADME, organism-based. Conditions: in vivo, 1 h.
Series [30] in a line: Drug uptake in iv dosed mouse striatum measured after 60 mins in presence of rivastigmine by PET imaging analysis. It counts as ADME, organism-based. Conditions: in vivo, 1 h.
Series [31] can be described thus: Drug uptake in iv dosed mouse hippocampus measured after 60 mins in presence of rivastigmine by PET imaging analysis. Format: ADME, organism-based. Conditions: in vivo, 1 h.
The nature of series [32]: Drug uptake in iv dosed mouse amygdala measured after 60 mins in presence of rivastigmine by PET imaging analysis. Format: ADME, organism-based. The following applies: in vivo, 1 h.
A short description of series [33]: Drug uptake in iv dosed mouse thalamus measured after 60 mins in presence of rivastigmine by PET imaging analysis. It counts as ADME, organism-based. The following applies: in vivo, 1 h.
Series [34] is described as follows: Drug uptake in iv dosed mouse cortex measured after 60 mins in presence of rivastigmine by PET imaging analysis. Format: ADME, organism-based. Conditions: in vivo, 1 h.
Series [35] in a line: Drug uptake in iv dosed mouse brainstem measured after 60 mins in presence of rivastigmine by PET imaging analysis. Format: ADME, organism-based. The following applies: in vivo, 1 h.
A short description of series [36]: Drug uptake in iv dosed mouse hypothalamus measured after 60 mins in presence of rivastigmine by PET imaging analysis. Format: ADME, organism-based. The following applies: in vivo, 1 h.
Series [37] can be described thus: Drug uptake in iv dosed mouse central gray substance of midbrain measured after 60 mins in presence of rivastigmine by PET imaging analysis. It counts as ADME, organism-based. Conditions: in vivo, 1 h.
A short description of series [38]: Drug uptake in iv dosed mouse heart measured after 5 mins by PET imaging analysis. The following applies: in vivo. Format: ADME, organism-based.
A short description of series [39]: Drug uptake in iv dosed mouse brain measured after 5 mins by PET imaging analysis. It counts as ADME, organism-based. Conditions: in vivo.
Series [40] can be described thus: Drug uptake in iv dosed mouse lung measured after 5 mins by PET imaging analysis. Format: ADME, organism-based. Conditions: in vivo.
A short description of series [41]: Drug uptake in iv dosed mouse liver measured after 30 mins by PET imaging analysis. Format: ADME, organism-based. The following applies: in vivo, 0.5 h.
Series [42] in a line: Drug uptake in iv dosed mouse spleen measured after 60 mins by PET imaging analysis. Format: ADME, organism-based. Conditions: in vivo, 1 h.

For 2 compounds, Activity and Drug uptake results are on record in ChEMBL document CHEMBL4680246, “Design, synthesis and biological evaluation of novel O-carbamoyl ferulamide derivatives as multi-target-directed ligands for the treatment of Alzheimer's disease” (Eur J Med Chem, 2020).

Structures are written as SMILES.

T1 sequence (P06276 whole entry): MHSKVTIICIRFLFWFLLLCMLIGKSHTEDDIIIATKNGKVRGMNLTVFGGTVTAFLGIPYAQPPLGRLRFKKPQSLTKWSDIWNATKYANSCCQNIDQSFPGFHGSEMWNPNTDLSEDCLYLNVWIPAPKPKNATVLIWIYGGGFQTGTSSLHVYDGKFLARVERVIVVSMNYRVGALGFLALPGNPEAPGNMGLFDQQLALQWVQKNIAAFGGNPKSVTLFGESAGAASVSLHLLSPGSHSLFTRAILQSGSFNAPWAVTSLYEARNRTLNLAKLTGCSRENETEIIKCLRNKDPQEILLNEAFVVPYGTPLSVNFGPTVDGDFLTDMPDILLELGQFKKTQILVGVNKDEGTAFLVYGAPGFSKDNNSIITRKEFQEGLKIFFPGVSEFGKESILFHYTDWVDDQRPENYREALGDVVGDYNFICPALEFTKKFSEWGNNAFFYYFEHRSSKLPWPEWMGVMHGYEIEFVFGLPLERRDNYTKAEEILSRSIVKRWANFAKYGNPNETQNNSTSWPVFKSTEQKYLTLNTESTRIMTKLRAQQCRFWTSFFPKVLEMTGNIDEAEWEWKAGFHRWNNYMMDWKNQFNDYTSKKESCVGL

As for `CCN(C)C(=O)Oc1cccc([C@H](C)N(C)C)c1` [RIVASTIGMINE], the Activity at Cholinesterase [1] is 73.3%; on Cholinesterase [2], 48.3%; on Cholinesterase [3] it was 53.2%; in series [4], “Non-Toxic”; with Mus musculus [5], 60.2%; in the series with Mus musculus [6], 55.3 U/g.

With `CCN(C)C(=O)Oc1ccc(/C=C/C(=O)N2CCc3ccccc3C2)cc1O[11CH3]`, the Drug uptake in [7] is given as 8.76 %ID/cc; in series [8] it was “Active”; in series [9] it was “Not Active”; in [10], “Not Active”; in series [11] it was “Active”; in series [12], -9 %ID/cc. Besides, the Drug uptake in series [13] is -9 %ID/cc; in [14], “Active”; in series [15], “Active”; in series [16] it was “Active”; in series [17], “Active”; in series [18], “Active”. For the same compound, the Drug uptake result was “Active” in series [19]; “Not Active” in [20]; “Not Active” in series [21]; “Not Active” in series [22]; “Not Active” in [23]; “Not Active” in series [24]. Moreover, the Drug uptake result in series [25], in series [26], in [27], in [28], in series [29] and in [30] was “Not Active” throughout. Moreover, the Drug uptake entry in [31], in [32], in series [33], in series [34], in [35] and in series [36] was “Not Active” in each case. The Drug uptake entry in series [37] is listed as “Not Active”; in [38], 11.8 %ID/cc; in [39], 6.21 %ID/cc; in series [40], 4.68 %ID/cc; in series [41] it was 14.46 %ID/cc; in series [42], 11.49 %ID/cc.
